Type in all cases: ADME, organism-based
What all share (conditions): in vivo

Series [1] in a line: Clearance in Sprague-Dawley rat at 1 mg/kg, iv.
Series [2] in a line: AUC (0 to infinity) in Sprague-Dawley rat at 1 mg/kg, iv. The arrangement: dose 1 mg/kg, route intravenous, time infinity.
Series [3] is described as follows: Cmax in Sprague-Dawley rat at 3 mg/kg, po. The arrangement: dose 3 mg/kg, route oral.
Series [4] is described as follows: AUC (0 to infinity) in Sprague-Dawley rat at 3 mg/kg, po. The arrangement: dose 3 mg/kg, time infinity, route oral.
A short description of series [5]: Oral bioavailability in Sprague-Dawley rat at 3 mg/kg.
Series [6] in a line: Half life in Sprague-Dawley rat at 1 mg/kg, iv.
Series [7] can be described thus: Tmax in Sprague-Dawley rat at 3 mg/kg, po.

One may read the clearance as a measure of how efficiently the substance is removed, as volume per time. Higher therefore signals a high capacity for elimination. The AUC(0-inf) is the area under the concentration-time curve extrapolated to infinity. Read a high AUC(0-inf) as high exposure. The Cmax is the highest concentration seen after dosing. For orientation: bioavailability means the share of a dose that reaches the circulation, judged against a reference dose that is usually intravenous. A higher bioavailability goes with much systemic uptake. As a reminder, the half-life is the time needed for the level to fall by half in the phase considered. For orientation: Tmax means the time from dosing to the highest level.

In series [1], `CCc1nc(C(N)=O)c(Nc2ccc3c(c2)CCN(C2CCCC2)CC3)nc1NC1CCOCC1` yielded a clearance of 93.2 mL/min/kg. Further, the AUC(0-inf) in series [2] came out at 179 ng·h/mL; in series [4], 199 ng·h/mL. This compound had a Cmax in series [3] of 23.8 ng/mL. For the same compound, the bioavailability in series [5] was 24.8%. In series [6], this compound had a half-life of 2.12 h. Besides, in series [7], the Tmax is 4 h.

The values are drawn from ChEMBL document CHEMBL4422653, “Discovery of a potent tyrosine kinase AXL inhibitor bearing the 3-((2,3,4,5-tetrahydro-1H-benzo[d]azepin-7-yl)amino)pyrazine core” (Bioorg Med Chem Lett, 2019).
